SMILES: [2H]C([2H])([2H])N(C([2H])([2H])[2H])C([2H])([2H])C([2H])([2H])c1c[nH]c2cccc(O)c12 [psilocin-d10, 3-(2-(bis(methyl-d3)amino)ethyl-1,1,2,2-d4)-1H-indol-4-ol]
- bioavailability (Sprague Dawley, rat, in vivo, po): ~60%
- reduction in oral concentration (Cmax) in comparison to psilocin after psilocybin (oral, Sprague Dawley rats, molar dose-normalised): 16%
- difference in systemic exposure versus psilocin (rats): ~30%
